Columns and labels:
CC531 cells = assay: Colorectal carcinoma model: CC531 cells implanted into the liver of Wag rats, tumor volume, metastasis and tolerability; assay type: in vivo; conditions: for Tumor Volume: % ± SD compared to untreated controls, CC531 liver tumor in Wag rats, treatment from 7th to 28th postoperative day; for tumor growth / primary tumor volume (in words): treatment day 7-28
Method: ombination of 1-(4-Chloroanilino)-4-(4-pyridylmethyl)phthalazine drochloride (ZK) and 3-pyridylmethyl-N-{4-[(2-amino-phenyl)-rbamoyl]benzyl}carbamate (MS) with Tamoxifen (TAM)
C cells CC531 were cultured in vitro (10th-15th passage) and implanted into e liver of adult (250 g) immuncompetent Wag rats (n/group=12). Between the venth and the 28th postoperative day the rats received either a placebo erapy, the conventional chemotherapy 5-fluoruracil (5FU, 10 mg/kg) or the llowing biomodulators alone or in combination: the VEGF receptor antagonist (4-Chloroanilino)-4-(4-pyridylmethyl)phthalazine hydrochloride (ZK) 0mg/kg), the histone deacetylase inhibitor 3-pyridylmethyl-N-{4-[(2-amino-enyl)carbamoyl]benzyl}carbamate (MS) dose and Tamoxifen (TAM) (TAM: g/kg KG i.p.). Apoptosis rate was assessed using a the TUNEL method on raformaldehyd fixed tumor material.

Structure (SMILES) | melting point | Tumor Volume (CC531 cells) [%] | tumor growth / primary tumor volume (in words) (CC531 cells)
COC(=O)c1ccc(C(=O)NCc2ccc(C(=O)Nc3ccccc3N)cc2)cc1 [Example 11, N-(2-aminophenyl)-4-[N-(4-methoxycarbonylbenzoyl)aminomethyl]benzamide] | 204 to 209 °C (dec.) |  | 
Cc1ncsc1CCOC(=O)NCc1ccc(C(=O)Nc2ccccc2N)cc1 [Example 64, N-(2-aminophenyl)-4-[N-[2-(4-methylthiazol-5-yl)ethoxycarbonyl]aminomethyl]benzamide] | 130 to 133 °C |  | 
Nc1ccccc1NC(=O)c1ccc(-n2cc(COc3ccc([N+](=O)[O-])cc3)oc2=O)cc1 [Example 137, N-(2-aminophenyl)-4-[5-(4-nitrophenoxy)methyl-1,3-oxazolin-2-on-3-yl]benzamide] | 162 to 164 °C |  | 
CC/C(=C(\c1ccccc1)c1ccc(OCCN(C)C)cc1)c1ccccc1 [Tamoxifen (TAM), (Z)-2-[p-(1,2-diphenyl-1-butenyl)phenoxy]-N,N-dimethylethylamine, reference compound] |  | 90 ± 10 | no significant reduction
Nc1ccccc1NC(=O)c1ccc(-n2cc(COc3cccnc3)oc2=O)cc1 [Example 139, N-(2-aminophenyl)-4-[5-(pyridin-3-yl)oxymethyl-1,3-oxazolin-2-on-3-yl]benzamide] | 199 to 201 °C |  | 
Nc1ccccc1NC(=O)c1ccc(CNC(=O)OCc2cccnc2)cc1 [3-pyridylmethyl-N-{4-[(2-amino-phenyl)-carbamoyl]benzyl}-carbamate] |  | 80 ± 23 | 
Clc1ccc(Nc2nnc(Cc3ccncc3)c3ccccc23)cc1.O=C(O)CCC(=O)O [K, (4-Chlorophenyl)[4-(4-pyridylmethyl)-phthalazin-1-yl]-ammonium hydrogen succinate] |  | 94 ± 20 | no significant reduction
Cl.Nc1ccc2c(Cc3ccncc3)nnc(Nc3ccc(Cl)cc3)c2c1 | > 300 °C |  | 
CC(C)c1ccc(Nc2nnc(Cc3ccncc3)c3ccccc23)cc1.Cl.Cl | > 250 °C |  | 
CC(=O)Nc1ccc(Nc2nnc(Cc3ccncc3)c3ccccc23)cc1 [Example A-11, 1-(4-Acetaminoanilino)-4-(4-pyridylmethyl)phthalazine] | > 270 °C |  | 
Nc1ccccc1NC(=O)c1ccc(CNC(=O)OCc2cccnc2)cc1 [MS, N-(2-aminophenyl)-4-[N-(pyridin-3-yl)methoxycarbonylaminomethyl]benzamide] |  |  | no significant reduction
O=c1[nH]cc(F)c(=O)[nH]1 [5-Fluorouracil (5FU), 5-Fluorouracil, reference compound] |  | 85 ± 19 | did not reduce tumor growth
